{
  "source": "patent US20240172748A1",
  "about": "“A SYNERGISTIC PLANT GROWTH STIMULANT COMPOSITION COMPRISING MELATONIN AND NITROGENOUS COMPOUNDS FOR IMPROVING PLANT GROWTH AND DECREASING BIOTIC-ABIOTIC STRESSES ON PLANTS” (FERTIS INDIA PVT. LTD., priority 2021, published 2024)",
  "format_in_all_cases": "in vivo",
  "key": {"Paddy [1]": {"tested_on": "Paddy", "assay": "Percentage of protein in grain, field trial on Paddy", "details": "area 10-meter square, 1 gm/liter foliar application", "excerpt": "Example 11: Percentage of Protein in Grain\n(§1) Field trail results on Paddy—Area 10-meter square 1 gm/liter Foliar Application"}, "Paddy [2]": {"tested_on": "Paddy", "assay": "Total protein content in percentage in grain, field trial on Paddy", "details": "area 10-meter square, lgm/liter foliar application", "excerpt": "Example 12: Methionin with Plant Growth Hormone—Total Protein Content in Percentage in Grain\nField trail results on Paddy—Area 10-meter square lgm/liter Foliar Application"}, "Paddy [3]": {"tested_on": "Paddy", "assay": "Micronutrient analysis in grain, field trial on Paddy", "details": "area 10-meter square, 1 gm/liter foliar application", "excerpt": "Example 9: Micronutrient Analysis in Grain\nas §1"}},
  "data": [
    {"smiles": "O=CNC(=O)NC=O", "note": "[NN DFU, N,N′-Diformyl Urea]", "values": [
      {"measurement": "% of Protein", "setting": "Paddy [1]", "value": 0.0117, "unit": "%"}
    ]},
    {"smiles": "NC(N)=O", "note": "[Urea]", "values": [
      {"measurement": "% of Protein", "setting": "Paddy [1]", "value": 0.0063, "unit": "%"}
    ]},
    {"smiles": "O=C(Nc1ccccc1)Nc1ccccc1", "note": "[Diphenyl urea]", "values": [
      {"measurement": "% of Protein", "setting": "Paddy [1]", "value": 0.0089, "unit": "%"}
    ]},
    {"smiles": "C=C1C[C@]23C[C@@]1(O)CC[C@H]2[C@@]12C=C[C@H](O)[C@@](C)(C(=O)O1)[C@H]2[C@@H]3C(=O)O", "note": "[Gibberellic acid]", "values": [
      {"measurement": "Total Protein content in %", "setting": "Paddy [2]", "value": 0.084, "unit": "%"}
    ]},
    {"smiles": "COc1ccc2[nH]cc(CCNC(C)=O)c2c1", "note": "[Melatonin]", "values": [
      {"measurement": "Total Protein content in %", "setting": "Paddy [2]", "value": 0.076, "unit": "%"},
      {"measurement": "B (Boron)", "setting": "Paddy [3]", "value": 40.30, "unit": "ppm"},
      {"measurement": "Ca (Calcium)", "setting": "Paddy [3]", "value": 375.00, "unit": "ppm"},
      {"measurement": "Fe (Iron)", "setting": "Paddy [3]", "value": 300.00, "unit": "ppm"},
      {"measurement": "Mg (Magnesium)", "setting": "Paddy [3]", "value": 609.00, "unit": "ppm"},
      {"measurement": "Mn (Manganese)", "setting": "Paddy [3]", "value": 45.00, "unit": "ppm"},
      {"measurement": "Zn (Zinc)", "setting": "Paddy [3]", "value": 36.50, "unit": "ppm"}
    ]},
    {"smiles": "CNC(=O)NC", "note": "[Dimethyl urea]", "values": [
      {"measurement": "% of Protein", "setting": "Paddy [1]", "value": 0.0081, "unit": "%"}
    ]}
  ]
}
